According to patent US12084426B2, “Indazole carboxamides as kinase inhibitors” (BRISTOL-MYERS SQUIBB COMPANY, priority 2018, dated 2024):

What follows are molecules tested on MLKL phosphorylation in HT29-L23 human colorectal adenocarcinoma cells (assay: MLKL Phosphorylation High-Content Assay). Conditions: Homo sapiens, 6 h, necroptosis induced with TNFα, SMAC mimetic and Z-VAD, read-out: pMLKL (IC50).
Type: cell-based
Protocol: MLKL Phosphorylation High-Content Assay
HT29-L23 human colorectal adenocarcinoma cells were maintained in RPMI 1640 medium containing 10% heat-inactivated FBS, 1% Penicillin-Streptomycin and 10 mM HEPES. Cells were seeded at 2,000 cells/well in 384 well tissue culture-treated microplates (Greiner #781090-3B) and incubated at 37° C. (5% CO2/95% O2) for 2 d. On the day of the assay, the cells were treated with test compounds at final concentrations of 6.25 to 0.106 μM for 30 min at 37° C. (5% CO2/95% O2). Necroptosis was induced using a mixture of human TNFα (35 ng/mL) (Peprotech #300-01A), SMAC mimetic (from US 2015/0322111 A1) (700 nM) and Z-VAD (140 nM) (BD pharmingen #51-6936). Following 6 h incubation at 37° C. (5% CO2/95% O2), the cells were fixed with 4% formaldehyde (ACROS 11969-0010) for 15 min at rt, then permeabilized with phosphate buffered saline (PBS) containing 0.2% Triton-X-100 for 10 min. MLKL phosphorylation was detected using anti-MLKL (phospho S358) antibody (Abcam #ab187091) (1:1000 dilution in Blocking Buffer [PBS supplemented with 0.1% BSA]) with ON incubation at 4° C. After washing three times in PBS, goat anti-rabbit Alexa-488 (1:1000 dilution) (Life Technologies, A11008) and Hoechst 33342 (Life Technologies, H3570) (1:2000 dilution) in Blocking Buffer were added for 1 h at rt. Following another three cycles of washes in PBS, the microplates were sealed, and cellular images were acquired in the Cellomics ArrayScan VTI high-content imager equipped with an X1 camera. Fluorescent images were taken using a 10× objective and the 386-23 BGRFRN_BGRFRN and 485-20 BGRFRN_BGRFRN filter sets, for nuclei and MLKL phosphorylation, respectively. The image sets were analyzed using the Compartmental Analysis Bioapplication software (Cellomics). The level of MLKL phosphorylation was quantified as MEAN_CircRingAvgIntenRatio. The maximal inhibitory response was defined by the activity induced by Necls (CAS #: 852391-15-2, 6.25 μM). The IC50 value was defined as the concentration of compound that produces 50% of the maximal inhibition. The data were fitted using the 4-parameter logistic equation to calculate the IC50 and Ymax values.

Going from `CNC(=O)c1n[nH]c2cc(N3CCCC(C(=O)NCc4ccccc4Oc4ccccc4)C3)ccc12` (racemic) [Example 8, N-methyl-6-(3-{ [(2-phenoxyphenyl)methyl]carbamoyl}piperidin-1-yl)-1H-indazole-3-carboxamide] to `CNC(=O)c1n[nH]c2cc(N3CCCC(C(=O)NCc4ccccc4OC(F)(F)F)C3)ccc12` (centres unmarked) [Example 1, N-methyl-6-[3-({[2-(trifluoromethoxy)phenyl]methyl}carbamoyl)piperidin-1-yl]-1H-indazole-3-carboxamide], the IC50 rises from 110 nM to 660 nM (6-fold).

First: CNC(=O)c1n[nH]c2cc(N3CCCC(C(=O)NCCCOC4CCCCC4)C3)ccc12 (racemic) [Example 9, 6-(3-{[3-(cyclohexyloxy)propyl]carbamoyl}piperidin-1-yl)-N-methyl-1H-indazole-3-carboxamide]
Second: CNC(=O)c1n[nH]c2cc(N3CCCC(C(=O)NCc4ccccc4OCC4CC4)C3)ccc12 (racemic) [Example 12, 6-[3-({[2-(cyclopropylmethoxy)phenyl]methyl}carbamoyl)piperidin-1-yl]-N-methyl-1H-indazole-3-carboxamide]
The IC50 of the first is 12-fold higher: 3500 nM for the first, 290 nM for the second.

Going from `CNC(=O)c1n[nH]c2cc(N3CCOC(C(=O)Nc4cnn(Cc5ccccc5)c4)C3)ccc12` (racemic) [Example 21, 6-{2-[(1-benzyl-1H-pyrazol-4-yl)carbamoyl]morpholin-4-yl}-N-methyl-1H-indazole-3-carboxamide] to `CNC(=O)c1n[nH]c2cc(N3CCOC(C(=O)NCCC(C)c4ccccc4)C3)ccc12` (centres unmarked) [Example 22, N-methyl-6-{2-[(3-phenylbutyl)carbamoyl]morpholin-4-yl}-1H-indazole-3-carboxamide], the IC50 falls from 1200 nM to 440 nM (2.7-fold).

`CNC(=O)c1n[nH]c2cc(N3CCCC(C(=O)NCC(O)COc4ccccc4)C3)ccc12` (single isomer, unassigned) [Example 6, 6-{3-[(2-hydroxy-3-phenoxypropyl)carbamoyl]piperidin-1-yl}-N-methyl-1H-indazole-3-carboxamide] and `CNC(=O)c1n[nH]c2cc(N3CCCC(C(=O)NCCC(O)c4ccccc4)C3)ccc12` (centres unmarked) [Example 10, 6-{3-[(3-hydroxy-3-phenylpropyl)carbamoyl]piperidin-1-yl}-N-methyl-1H-indazole-3-carboxamide] are within 1.5-fold of each other in IC50: 4300 nM for the first, 3600 nM for the second.

`CNC(=O)c1n[nH]c2cc(N3CCCC(C(=O)NC4CCCC(c5ccccc5)C4)C3)ccc12` (single isomer, unassigned) [Example 15, N-methyl-6-{3-[(3-phenylcyclohexyl)carbamoyl]piperidin-1-yl}-1H-indazole-3-carboxamide] and `CNC(=O)c1n[nH]c2cc(N3CCOC(C(=O)NC4CCCC(c5ccccc5)C4)C3)ccc12` (centres unmarked) [Example 26, N-methyl-6-{2-[(3-phenylcyclohexyl)carbamoyl]morpholin-4-yl}-1H-indazole-3-carboxamide] are within 1.5-fold of each other in IC50: 1900 nM for the first, 2500 nM for the second.

Compared with `CNC(=O)c1n[nH]c2cc(N3CCN(C)C(C(=O)NCc4ccccc4OC)C3)ccc12` (centres unmarked) [Example 2, 6-(3-{[(2-methoxyphenyl)methyl]carbamoyl}-4-methylpiperazin-1-yl)-N-methyl-1H-indazole-3-carboxamide], `CNC(=O)c1n[nH]c2cc(N3CCN(C)C(C(=O)NCCC(C)c4ccccc4)C3)ccc12` (centres unmarked) [Example 20, N-methyl-6-{4-methyl-3-[(3-phenylbutyl)carbamoyl]piperazin-1-yl}-1H-indazole-3-carboxamide] is lower in IC50: over 6200 nM for the first, 2300 nM for the second. The second is the more potent here.

`CNC(=O)c1n[nH]c2cc(N3CCOC(C(=O)NCCC(O)c4ccc(F)c(F)c4)C3)ccc12` (centres unmarked) [Example 3, 6-(2-{[3-(3,4-difluorophenyl)-3-hydroxypropyl]carbamoyl}morpholin-4-yl)-N-methyl-1H-indazole-3-carboxamide] and `CNC(=O)c1n[nH]c2cc(N3CCOC(C(=O)NCCC(O)c4ccc(Cl)cc4)C3)ccc12` (centres unmarked) [Example 25, 6-(2-{[3-(4-chlorophenyl)-3-hydroxypropyl]carbamoyl}morpholin-4-yl)-N-methyl-1H-indazole-3-carboxamide] are within 1.5-fold of each other in IC50: 4300 nM for the first, 4500 nM for the second.

Compared with `CNC(=O)c1n[nH]c2cc(N3CCNC(C(=O)NCCC(C)c4ccccc4)C3)ccc12` (centres unmarked) [Example 4, N-methyl-6-{3-[(3-phenylbutyl)carbamoyl]piperazin-1-yl}-1H-indazole-3-carboxamide], `CNC(=O)c1n[nH]c2cc(N3CCCC(C(=O)NCCC(C)c4ccccc4)C3)ccc12` (centres unmarked) [Example 17, N-methyl-6-{3-[(3-phenylbutyl)carbamoyl]piperidin-1-yl}-1H-indazole-3-carboxamide] is 16-fold lower in IC50: 3200 nM for the first, 200 nM for the second.

Going from `CNC(=O)c1n[nH]c2cc(C3CCCN(C(=O)NCCC(C)c4ccccc4)C3)ccc12` (centres unmarked) [Example 5, N-methyl-6-{1-[(3-phenylbutyl)carbamoyl]piperidin-3-yl}-1H-indazole-3-carboxamide] to `CNC(=O)c1n[nH]c2cc(N3CCN(C)C(C(=O)NCCC(O)c4ccccc4)C3)ccc12` (centres unmarked) [Example 18, 6 6-{3-[(3-hydroxy-3-phenylpropyl)carbamoyl]-4-methylpiperazin-1-yl}-N-methyl-1H-indazole-3-carboxamide], the IC50 rises from 190 nM to 2400 nM (13-fold). The first is the more potent here.

First: CNC(=O)c1n[nH]c2cc(N3CCCC(C(=O)NCCC(O)c4ccc(F)c(F)c4)C3)ccc12 (centres unmarked) [Example 14, 6-(3-{[3-(3,4-difluorophenyl)-3-hydroxypropyl]carbamoyl}piperidin-1-yl)-N-methyl-1H-indazole-3-carboxamide]
Second: CNC(=O)c1n[nH]c2cc(N3CCN(C)C(C(=O)NCCC(C)c4ccc(F)cc4)C3)ccc12 (centres unmarked) [Example 19, 6-(3-{[3-(4-fluorophenyl)butyl]carbamoyl}-4-methylpiperazin-1-yl)-N-methyl-1H-indazole-3-carboxamide]
The IC50 of the first is 3.5-fold higher: 2400 nM for the first, 690 nM for the second. The second is the more potent here.

Compared with `CNC(=O)c1n[nH]c2cc(N3CCOC(C(=O)NCC4CC4c4cccc(F)c4)C3)ccc12` (centres unmarked) [Example 23], `CNC(=O)c1n[nH]c2cc(N3CCOC(C(=O)NCCC(C)c4ccc(F)cc4)C3)ccc12` (centres unmarked) [Example 24, 6-(2-{[3-(4-fluorophenyl)butyl]carbamoyl}morpholin-4-yl)-N-methyl-1H-indazole-3-carboxamide] is 15-fold lower in IC50: 1600 nM for the first, 110 nM for the second. The second is the more potent here.

Same assay, conditions: necroptosis induced with TNFα, SMAC mimetic and Z-VAD, 6 h, read-out: pMLKL (IC50)

`CNC(=O)c1n[nH]c2cc(N3CCCC(C(=O)NC4CCCC(c5ccccc5)C4)C3)ccc12` (racemic) [Example 16, N-methyl-6-{3-[(3-phenylcyclohexyl)carbamoyl]piperidin-1-yl}-1H-indazole-3-carboxamide] and `CNC(=O)c1n[nH]c2cc(N3CCCC(C(=O)NCC(O)COc4ccccc4)C3)ccc12` (single isomer, unassigned) [Example 7, 6-{3-[(2-hydroxy-3-phenoxypropyl)carbamoyl]piperidin-1-yl}-N-methyl-1H-indazole-3-carboxamide] are within 1.5-fold of each other in IC50: 3100 nM for the first, 2200 nM for the second.

`CNC(=O)c1n[nH]c2cc(N3CCCC(C(=O)Nc4cnn(Cc5ccccc5)c4)C3)ccc12` (centres unmarked) [Example 11, 6-{3-[(1-benzyl-1H-pyrazol-4-yl)carbamoyl]piperidin-1-yl}-N-methyl-1H-indazole-3-carboxamide] and `CNC(=O)c1n[nH]c2cc(N3CCCC(C(=O)NCCCOc4ccc(F)cc4)C3)ccc12` (centres unmarked) [Example 13, 6-(3-{[3-(4-fluorophenoxy)propyl]carbamoyl}piperidin-1-yl)-N-methyl-1H-indazole-3-carboxamide] are within 1.5-fold of each other in IC50: 2500 nM for the first, 3200 nM for the second.
